1 compound from patent publication US20060079677A1, “Novel tricyclic azepine derivatives, method for production thereof and pharmaceutical compositions comprising the same” (priority 2003, published 2006) can be followed below.

Assay [1] concerns KB-3-1 human epidermoid carcinoma. Put plainly: In vitro cytotoxicity, Microculture Tetrazolium Assay. The format is cell-based. To be noted: 96 h, KB-3-1, incubated 4 days, inhibition of proliferation by 50%. How it is done: (§1) Five cell lines were used: • 1 murine leukaemia, L1210, • 1 non-small-cell human lung carcinoma, A549, • 1 human epidermoid carcinoma, KB-3-1, and the corresponding resistant line, KB-A1, whose multi-drug resistance was induced using adriamycin (ADR), • 1 human colon carcinoma, HT29.
(§2) The cells are cultured in RPMI 1640 complete culture medium comprising 10% foetal calf serum, 2 mM glutamine, 50 units/ml of penicillin, 50 μg/ml of streptomycin and 10 mM Hepes, pH 7.4. The cells are distributed on microplates and are exposed to the cytotoxic compounds. The cells are then incubated for 2 days (L1210) or 4 days (A549, KB-A1, KB-3-1, HT29). The number of viable cells is then quantified by a colorimetric assay, the Microculture Tetrazolium Assay (Cancer Res. 1987, 47, 936-942).
(§3) The results are expressed as IC50, the concentration of cytotoxic agent that inhibits the proliferation of the treated cells by 50%.

Assay [2] has as its system HT29 human colon carcinoma. The description is as above. The format is cell-based. The settings on record: HT-29, 96 h, HT29, incubated 4 days, inhibition of proliferation by 50%. The method, then: as §1, §2, §3
The test system of assay [3] is L1210 murine leukaemia. The assay is described as above. In kind it is cell-based. To be noted: Mus musculus, 48 h; L1210, incubated 2 days, inhibition of proliferation by 50%. The method, then:
as §1, §2, §3

The test system of assay [4] is A549 non-small-cell human lung carcinoma. The assay is described as above. The format is cell-based. The settings on record: 96 h, A549, incubated 4 days, inhibition of proliferation by 50%. The method, then: as §1, §2, §3
The subject of assay [5] is KB-A1 resistant line (multi-drug resistance induced using adriamycin). Described as above. In kind it is cell-based, human. The method, then: as §1, §2, §3
Assay [6] relates to L1210 cells. The experiment in a line: Action on the cell cycle. The format is cell-based, murine. The settings on record: 25 nM, after 21 hours (untreated cells: 20%). The method, then:
L1210 cells are incubated for 21 hours at 37° C. in the presence of various concentrations of test compounds. The cells are then fixed using 70% ethanol (v/v), washed twice in PBS and incubated for 30 minutes at 20° C. in PBS that contains 100 μg/ml of RNAse and 50 μg/ml of propidium iodide. The results are expressed as a percentage of the cells that have accumulated in the G2+M phases after 21 hours compared with the control.

SMILES strings stand for the structures. pIC50: −log10 of the molar value.

`COc1ccc(CCN2C=CC=C3C2=Nc2ccccc2OS3(=O)=O)cc1` [Example 42, 1-[2-(4-Methoxyphenyl)ethyl]-1H-pyrido[3,2-c][1,2,5]benzoxathiazepine 5,5-dioxide]: the negative-log IC50 (pIC50) – broadly, −log10 of the IC50, conventionally taken in molar units – in assay [1] is 7.81; in assay [2], 8.01; in assay [3], 8.09; in assay [4] it was 7.95; in assay [5] (Homo sapiens, 96 h, KB-A1, incubated 4 days, inhibition of proliferation by 50%), 7.88. In assay [5] (KB-A1 as sensitive as KB-3-1), the “recognition by P-glycoprotein (resistant line KB-A1 versus sensitive line KB-3-1)” value is listed as “not recognised by P-glycoprotein”. The “percentage of the cells accumulated in the G2+M phases” value in assay [6] was 80-90%.
